Test results published in patent US9988390B2, “Pyrimidone derivatives and their use in the treatment, amelioration or prevention of a viral disease” (F. Hoffmann-La Roche AG, priority 2015, dated 2018).

What follows are compounds tested on influenza A virus (A/WSN/33 NanoLuc reporter virus) in A549 cells (assay: microbe, parasite or virus in culture). Settings: A549, 24 h, read-out: IC50 values of viral replication inhibition in a cell-based Luciferase Reporter Assay (LRA).
Assay type: cell-based

Row | SMILES | IC50 [nM]
1 | CC(C)N1C[C@H](C2c3ccccc3CCc3ccccc32)n2c([S+](C)[O-])nc(=O)c(O)c2C1=O (stereo partly drawn) [Ia-31, (4S)-4-(6,11-Dihydro-5H-dibenzo[2,1-b:1′,2′-e][7]annulen-11-yl)-9-hydroxy-2-isopropyl-6-methylsulfinyl-3,4-dihydropyrazino[1,2-c]pyrimidine-1,8-dione] | 15
2 | CC[S+]([O-])c1nc(=O)c(O)c2n1[C@@H](C(c1ccccc1)c1ccccc1)CN(C(C)C)C2=O (stereo partly drawn) [Ia-32, (4S)-4-Benzhydryl-6-ethylsulfinyl-9-hydroxy-2-isopropyl-3,4-dihydropyrazino[1,2-c]pyrimidine-1,8-dione] | 117
3 | CC(C)N1C[C@H](C(c2ccccc2)c2ccccc2)n2c(NCC(F)(F)F)nc(=O)c(O)c2C1=O [Ia-33, (4S)-4-Benzhydryl-9-hydroxy-2-isopropyl-6-(2,2,2-trifluoroethylamino)-3,4-dihydropyrazino[1,2-c]pyrimidine-1,8-dione] | 273
4 | CC(C)N1C[C@H](C2c3ccccc3CCc3ccccc32)n2c(NCC(F)(F)F)nc(=O)c(O)c2C1=O [Ia-34, (4S)-4-(6,11-Dihydro-5H-dibenzo[2,1-b:1′,2′-e][7]annulen-11-yl)-9-hydroxy-2-isopropyl-6-(2,2,2-trifluoroethylamino)-3,4-dihydropyrazino[1,2-c]pyrimidine-1,8-dione] | 50
5 | CC(C)Nc1nc(=O)c(O)c2n1[C@@H](C(c1ccccc1)c1ccccc1)CN(C(C)C)C2=O [Ia-35, (4S)-4-Benzhydryl-9-hydroxy-2-isopropyl-6-(isopropylamino)-3,4-dihydropyrazino[1,2-c]pyrimidine-1,8-dione] | 324
6 | CC(C)Nc1nc(=O)c(O)c2n1[C@@H](C1c3ccccc3CCc3ccccc31)CN(C(C)C)C2=O [Ia-36, (4S)-4-(6,11-Dihydro-5H-dibenzo[2,1-b:1′,2′-e][7]annulen-11-yl)-9-hydroxy-2-isopropyl-6-(isopropylamino)-3,4-dihydropyrazino[1,2-c]pyrimidine-1,8-dione] | 103
7 | CC(C)N1C[C@H](C(c2ccccc2)c2ccccc2)n2c(NC(C)C(F)(F)F)nc(=O)c(O)c2C1=O (stereo partly drawn) [Ia-37, (4S)-4-Benzhydryl-9-hydroxy-2-isopropyl-6-[(2,2,2-trifluoro-1-methyl-ethyl)amino]-3,4-dihydropyrazino[1,2-c]pyrimidine-1,8-dione] | 516
8 | CC(C)N1C[C@H](C(c2ccccc2)c2ccccc2)n2c(S(C)(=O)=O)nc(=O)c(O)c2C1=O [Ia-38, (4S)-4-Benzhydryl-9-hydroxy-2-isopropyl-6-methylsulfonyl-3,4-dihydropyrazino[1,2-c]pyrimidine-1,8-dione] | 110
9 | CCS(=O)(=O)c1nc(=O)c(O)c2n1[C@@H](C(c1ccccc1)c1ccccc1)CN(C(C)C)C2=O [Ia-39, (4S)-4-Benzhydryl-6-ethylsulfonyl-9-hydroxy-2-isopropyl-3,4-dihydropyrazino[1,2-c]pyrimidine-1,8-dione] | 470
10 | Cc1nc(=O)c(O)c2n1[C@@H](C(c1ccccc1)c1ccccc1)CN(C(C)C)C2=O [Ia-40, (4S)-4-Benzhydryl-9-hydroxy-2-isopropyl-6-methyl-3,4-dihydropyrazino[1,2-c]pyrimidine-1,8-dione] | 119
11 | CCc1nc(=O)c(O)c2n1[C@@H](C(c1ccccc1)c1ccccc1)CN(C(C)C)C2=O [Ia-41, (4S)-4-Benzhydryl-6-ethyl-9-hydroxy-2-isopropyl-3,4-dihydropyrazino[1,2-c]pyrimidine-1,8-dione] | 77
12 | CC(C)N1C[C@H](C(c2ccccc2)c2ccccc2)n2c(-c3ccccc3)nc(=O)c(O)c2C1=O [Ia-42, (4S)-4-benzhydryl-9-hydroxy-2-isopropyl-6-phenyl-3,4-dihydropyrazino[1,2-c]pyrimidine-1,8-dione] | 126
13 | CC(C)N1C[C@H](C(c2ccccc2)c2ccccc2)n2c(-n3ccnc3)nc(=O)c(O)c2C1=O [Ia-43, (4S)-4-Benzhydryl-9-hydroxy-6-imidazol-1-yl-2-isopropyl-3,4-dihydropyrazino[1,2-c]pyrimidine-1,8-dione] | 495
